Results taken from article PMC12332266 (Frontiers in Pharmacology, 2025).
“Also recorded” adds a separate entry of the source. Like-named read-outs stand apart in the source and are kept apart here.

Tests used:
[1] = test system: hiPSC-CM (iCell Cardiomyocytes^2); assay: RTCA CardioECR assessment (impedance and electrophysiology parameters); conditions: for RTCA, MEC (CI): change ≥20%, Table 2
Summary of the method: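 iCell^2 cardiomyocytes on fibronectin-coated ePlates monitored continuously by impedance for cell index, beating rate and amplitude. Field potential duration and spike amplitude were recorded from day 4–6 after monolayer formation. Data were double-normalized to DMSO control and baseline, with variability given as SD.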

[2] = test system: hiPSC-CM (iCell Cardiomyocytes^2); assay: miRNA in hiPSC-CM culture media by RT-qPCR at 24, 48 and 72 h post-treatment; conditions: for hsa-miR-133b in culture media, in words: 24, 48, 72 h, arsenic trioxide 0.48 μM, milrinone 3 μM, vincristine 0.3 μM, erlotinib 7.7 μM;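 for all read-outs here: medium RNA quantified by RT-qPCR, CT-values normalized to housekeeping miRNAs, compared against DMSO control, doses chosen from the MEC for CI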
Description: (§1) To extract total RNA from the culture media, hiPSC-CM were plated on 24-well plates by seeding 275,000 cells per mL per well. hiPSC-CM were maintained for 7 days in 200 µL of iCell^2 Maintenance Medium (iCell^2 MM; FCDI) for the 48-well ePlate and in 1 mL for 24-well plate, before drug treatment. Culture media change was performed every 2 days.
(§2) Stock solutions were diluted 1:1000 in iCell^2 MM before treatment and equilibrated at 37°C. As vehicle control, DMSO 0.1% was added to the media. Drug treatments on biological replicates (n = 3) were refreshed daily, and culture media was collected for further miRNA analysis. After 72 h, cell pellets were collected and stored at −80°C until total RNA extraction.
(§3) hiPSC-CM culture media was collected daily from 24-well plates, and centrifuged (+4°C, 11,000 rpm) for 5 min to remove cellular debris/cells. Total RNA was extracted from 300 µL of supernatant by Trizol/Chloroform phase separation and purification of total RNA by miRNeasy 96 Kit (Qiagen, Hilden, Germany). The spike-in control cel-miR-39 (Qiagen, Hilden, Germany) was used to check the quality of samples and PCR efficiency. DNase treatment (RNase-Free DNase Set (Qiagen, Hilden, Germany)) was applied according to the manufacturer’s instructions. After the RNA extraction, the same RT-qPCR protocol as for hiPSC-CM lysate was followed. Multiple unpaired t-tests were performed to compare delta CT-values (CT-values normalized to the housekeeping miRNAs) of the treatment groups to the DMSO control.
(§4) Analysis of miRNA in the culture media of hiPSC-CM treated with structural cardiotoxicants was performed at 24-, 48- and 72-hour post-treatment. […] The treatment concentrations were selected based on the MEC for CI to ensure that the preliminary evidence of cardiotoxicity in hiPSC-CMs could potentially lead to miRNA release in the culture media.

[3] = test system: hiPSC-CM (iCell Cardiomyocytes^2); assay: Intracellular miRNA expression by RT-qPCR in hiPSC-CM pellets after 72-hour treatment; conditions: for fold induction at 0.0003 µM / fold induction at 0.003 µM / fold induction at 0.03 µM / fold induction at 0.3 µM / fold induction at 0.1 µM / fold induction at 3 µM / fold induction at 10 µM: Homo sapiens
Summary of the method: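 After 72-hour treatment and RTCA CardioECR assessment, total RNA from hiPSC-CM pellets was reverse transcribed, pre-amplified and quantified by TaqMan RT-qPCR against a 17-miRNA panel. Triplicates were pooled, so no statistical analysis was performed.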

[4] = ref extensive literature search, cited from earlier work
[5] = test system: hiPSC-CM (iCell Cardiomyocytes^2); conditions: human
Description: as §1, §2, §3, §4

[6] = doxorubicin 0.1 μM, vinblastine 0.3 μM
[7] = 72 h, read-out: hsa-miR-7-5p fold change
[8] = 72 h, read-out: hsa-miR-29a-5p fold change
[9] = 72 h, read-out: hsa-miR-96-5p fold change
[10] = 72 h, read-out: hsa-miR-126-3p fold change
[11] = 72 h, read-out: hsa-miR-133b fold change
[12] = 72 h, read-out: hsa-miR-146b-5p fold change
[13] = 72 h, read-out: hsa-miR-182-5p fold change
[14] = 72 h, read-out: hsa-miR-185-3p fold change
[15] = 72 h, read-out: hsa-miR-187-3p fold change
[16] = 72 h, read-out: hsa-miR-208b-3p fold change
[17] = 72 h, read-out: hsa-miR-365a-5p fold change

SMILES: CC[C@]1(O)C[C@@H]2CN(CCc3c([nH]c4ccccc34)[C@@](C(=O)OC)(c3cc4c(cc3OC)N(C)[C@H]3[C@@](O)(C(=O)OC)[C@H](OC(C)=O)[C@]5(CC)C=CCN6CC[C@]43[C@@H]65)C2)C1 [Vinblastine]
- RTCA, MEC (CI) ([1]; hiPSC-CM): 0.3 µM
- Beating Rate MEC ([1]; human, 72 h): 0.003 µM
- Beating rate (BR) MEC ([1]; human, 72 h): 0.003 µM
- Contractility Amplitude MEC ([1]; human, 72 h): 0.0003 µM
- RTCA, MEC (BR) ([1]; human, 72 h): 0.003 µM
- Spike Amplitude (SA) MEC ([1]; human, 72 h): 0.0003 µM
- hsa-miR-133b in culture media, in words [2, 6]: upregulation was detected only after 72 h of treatment; also recorded: significant upregulation was observed only after 72-hour treatment
- hsa-miR-187-3p in culture media, in words [2, 6]: detected in the culture media only following 72-hour exposure
- miRNAs hiPSC-CM pellet, MEC overall [3]: 0.0003 µM
- miRNAs upregulated at the MEC overall (hiPSC-CM pellet) [3]: miR-126-3p, miR-133b, miR-185-3p
- Cmax total ([4]; Supplementary Table 1): 0.035 µM
- Cmax total ([4]; Table 1): 0.035 µM

SMILES: CC[C@]1(O)C[C@H]2CN(CCc3c([nH]c4ccccc34)[C@@](C(=O)OC)(c3cc4c(cc3OC)N(C=O)[C@H]3[C@@](O)(C(=O)OC)[C@H](OC(C)=O)[C@]5(CC)C=CCN6CC[C@]43[C@@H]65)C2)C1 [Vincristine]
- Cell index (CI) MEC ([1]; hiPSC-CM, 72-hour treatment, lowest concentration causing at least 20% change from baseline): 0.003 µM
- RTCA, MEC (CI) ([1]; hiPSC-CM): 0.003 µM (CI)
- Cell Index MEC ([1]; human, 72 h): 0.003 µM
- Contractility Amplitude MEC ([1]; human, 72 h): 0.003 µM
- Spike Amplitude (SA) MEC ([1]; human, 72 h): 0.003 µM
- hsa-miR-126-3p fold change, culture media ([2]; 0.3 µM, 24h): 0.4
- hsa-miR-208b-3p fold change, culture media ([2]; 0.3 µM, 24h): 0.9
- hsa-miR-[…] change, culture media ([2]; 0.3 µM, 24h): 1.6
- hsa-miR-208b-3p fold change, culture media ([2]; 0.3 µM, 48h): 1.3
- hsa-miR-[…] change, culture media ([2]; 0.3 µM, 48h): 1.4
- hsa-miR-7-5p fold change, culture media ([2]; 0.3 µM, 72 h): 0.5
- hsa-miR-133b fold change, culture media ([2]; 0.3 µM, 72 h): 2.4
- hsa-miR-187-3p fold change, culture media ([2]; 0.3 µM, 72 h): 16.0
- hsa-miR-208b-3p fold change, culture media ([2]; 0.3 µM, 72 h): 2.3
- hsa-miR-[…] change, culture media ([2]; 0.3 µM, 72 h): 0.3
- hsa-miR-133b in culture media, in words [2, 6]: increase that was not statistically significant
- intracellular miRNA upregulation in hiPSC-CM, in words [3]: smallest fold change
- miRNAs hiPSC-CM pellet, MEC overall [3]: 0.0003 µM
- miRNAs upregulated at the MEC overall (hiPSC-CM pellet) [3]: miR-126-3p
- hsa-miR-7-5p fold change, intracellular ([3]; 0.3 µM, 72 h): 1.0
- hsa-miR-29a-5p fold change, intracellular ([3]; 0.3 µM, 72 h): 1.0
- hsa-miR-96-5p fold change, intracellular ([3]; 0.3 µM, 72 h): 0.8
- hsa-miR-126-3p fold change, intracellular ([3]; 0.3 µM, 72 h): 1.4
- hsa-miR-133b fold change, intracellular ([3]; 0.3 µM, 72 h): 0.3
- hsa-miR-146b-5p fold change, intracellular ([3]; 0.3 µM, 72 h): 0.3
- hsa-miR-182-5p fold change, intracellular ([3]; 0.3 µM, 72 h): 0.4
- hsa-miR-185-3p fold change, intracellular ([3]; 0.3 µM, 72 h): 1.1
- hsa-miR-187-3p fold change, intracellular ([3]; 0.3 µM, 72 h): 0.7
- hsa-miR-208b-3p fold change, intracellular ([3]; 0.3 µM, 72 h): 2.2
- fold induction at 0.0003 µM [3, 7]: 1
- fold induction at 0.003 µM [3, 7]: 1.1
- fold induction at 0.03 µM [3, 7]: 0.9
- fold induction at 0.3 µM [3, 7]: 1
- fold induction at 0.0003 µM [3, 8]: 0.4
- fold induction at 0.003 µM [3, 8]: 0.7
- fold induction at 0.03 µM [3, 8]: 1
- fold induction at 0.3 µM [3, 8]: 1
- fold induction at 0.0003 µM [3, 9]: 0.3
- fold induction at 0.003 µM [3, 9]: 0.6
- fold induction at 0.03 µM [3, 9]: 0.3
- fold induction at 0.3 µM [3, 9]: 0.8
- fold induction at 0.0003 µM [3, 10]: 3.2
- fold induction at 0.003 µM [3, 10]: 1.9
- fold induction at 0.03 µM [3, 10]: 1.3
- fold induction at 0.3 µM [3, 10]: 1.4
- fold induction at 0.0003 µM [3, 11]: 0.3
- fold induction at 0.003 µM [3, 11]: 0.2
- fold induction at 0.03 µM [3, 11]: 0.4
- fold induction at 0.3 µM [3, 11]: 0.3
- fold induction at 0.0003 µM [3, 12]: 1.2
- fold induction at 0.003 µM [3, 12]: 0.7
- fold induction at 0.03 µM [3, 12]: 0.4
- fold induction at 0.3 µM [3, 12]: 0.3
- fold induction at 0.0003 µM [3, 13]: 0.4
- fold induction at 0.003 µM [3, 13]: 0.5
- fold induction at 0.3 µM [3, 13]: 0.4
- fold induction at 0.0003 µM [3, 14]: 1.4
- fold induction at 0.003 µM [3, 14]: 2
- fold induction at 0.03 µM [3, 14]: 1
- fold induction at 0.3 µM [3, 14]: 1.1
- fold induction at 0.0003 µM [3, 15]: 1.3
- fold induction at 0.003 µM [3, 15]: 1.9
- fold induction at 0.03 µM [3, 15]: 1.4
- fold induction at 0.3 µM [3, 15]: 0.7
- fold induction at 0.0003 µM [3, 16]: 0.8
- fold induction at 0.003 µM [3, 16]: 1.3
- fold induction at 0.03 µM [3, 16]: 1.6
- fold induction at 0.3 µM [3, 16]: 2.2
- fold induction at 0.0003 µM [3, 17]: 0.6
- fold induction at 0.003 µM [3, 17]: 1.6
- fold induction at 0.03 µM [3, 17]: 1
- intracellular miRNA upregulation in hiPSC-CM, in words ([3]; human, 72 h): intracellular miR-208-3p was upregulated
- Cmax total ([4]; Supplementary Table 1): 0.05 µM
- Cmax total ([4]; Table 1): 0.05 µM

SMILES: Cc1[nH]c(=O)c(C#N)cc1-c1ccncc1 [Milrinone]
- Field Potential Duration MEC ([1]; human, 72 h): 0.3 µM
- Spike Amplitude (SA) MEC ([1]; human, 72 h): 0.1 µM
- hsa-miR-126-3p fold change, culture media ([2]; 3 µM, 24h): 3.9
- hsa-miR-208b-3p fold change, culture media ([2]; 3 µM, 24h): 6.0
- hsa-miR-[…] change, culture media ([2]; 3 µM, 24h): 3.5
- hsa-miR-133b fold change, culture media ([2]; 3 µM, 48h): 0.8
- hsa-miR-208b-3p fold change, culture media ([2]; 3 µM, 48h): 2.8
- hsa-miR-[…] change, culture media ([2]; 3 µM, 48h): 1.4
- hsa-miR-7-5p fold change, culture media ([2]; 3 µM, 72 h): 9.1
- hsa-miR-126-3p fold change, culture media ([2]; 3 µM, 72 h): 2.5
- hsa-miR-133b fold change, culture media ([2]; 3 µM, 72 h): 2.5
- hsa-miR-208b-3p fold change, culture media ([2]; 3 µM, 72 h): 0.6
- hsa-miR-[…] change, culture media ([2]; 3 µM, 72 h): 4.4
- miRNAs hiPSC-CM pellet, MEC overall [3]: 0.1 µM
- miRNAs upregulated at the MEC overall (hiPSC-CM pellet) [3]: miR-126-3p, miR-133b, miR-146b-5p
- fold induction at 0.1 µM [3, 7]: 1.1
- fold induction at 0.3 µM [3, 7]: 1.1
- fold induction at 3 µM [3, 7]: 0.5
- fold induction at 10 µM [3, 7]: 1.3
- fold induction at 0.1 µM [3, 8]: 0.6
- fold induction at 0.3 µM [3, 8]: 0.02
- fold induction at 10 µM [3, 8]: 0.3
- fold induction at 0.1 µM [3, 10]: 7.7
- fold induction at 0.3 µM [3, 10]: 5.9
- fold induction at 3 µM [3, 10]: 0.4
- fold induction at 10 µM [3, 10]: 1.7
- fold induction at 0.1 µM [3, 11]: 2.2
- fold induction at 0.3 µM [3, 11]: 2.6
- fold induction at 3 µM [3, 11]: 3.5
- fold induction at 10 µM [3, 11]: 2.5
- fold induction at 0.1 µM [3, 12]: 3.6
- fold induction at 0.3 µM [3, 12]: 19
- fold induction at 3 µM [3, 12]: 5
- fold induction at 10 µM [3, 12]: 3
- fold induction at 0.1 µM [3, 13]: 1.9
- fold induction at 0.3 µM [3, 13]: 1.6
- fold induction at 3 µM [3, 13]: 0.9
- fold induction at 10 µM [3, 13]: 1.3
- fold induction at 0.3 µM [3, 14]: 0.2
- fold induction at 3 µM [3, 14]: 16.3
- fold induction at 10 µM [3, 14]: 0.9
- fold induction at 0.3 µM [3, 15]: 3.7
- fold induction at 3 µM [3, 15]: 1.2
- fold induction at 10 µM [3, 15]: 3.3
- fold induction at 0.1 µM [3, 16]: 1.3
- fold induction at 0.3 µM [3, 16]: 1.8
- fold induction at 3 µM [3, 16]: 2.1
- fold induction at 10 µM [3, 16]: 2.4
- fold induction at 0.1 µM [3, 17]: 3.7
- fold induction at 0.3 µM [3, 17]: 4.9
- fold induction at 3 µM [3, 17]: 0.4
- fold induction at 10 µM [3, 17]: 1.1
- hsa-miR-7-5p fold change, intracellular ([3]; human, 72 h, 3 µM): 0.5
- hsa-miR-182-5p fold change, intracellular ([3]; human, 72 h, 3 µM): 0.9
- hsa-miR-185-3p fold change, intracellular ([3]; human, 72 h, 3 µM): 16.3
- hsa-miR-365a-5p fold change, intracellular ([3]; human, 72 h, 3 µM): 0.4
- miRNAs in culture media of hiPSC-CM, in words [5]: hsa-miR-7-5p and hsa-miR-126-3p, were upregulated after 72-hour exposure
- miRNAs in culture media of hiPSC-CM, in words ([5]; 3 µM): for hsa-miR-126-3p, upregulation was also observed after 24-hour treatment
- Cmax total ([4]; Supplementary Table 1): 0.62 to 1.18 µM
- Cmax total ([4]; Table 1): 0.62 to 1.18 µM
